Assay results reported in patent US20080193411A1, “Anti-viral Compounds” (Genelabs Technologies, Inc., priority 2006, published 2008).

test system: HCV replication; experiment: HCV replicon assay (luciferase), ET (Huh-lucubineo-ET) cell line; type: cell-based; conditions: Hepatitis C virus; tested at 10 μM; ET (Huh-lucubineo-ET) replicon cells; luciferase activity 48-72 hours; relative to no compound control
Method: A cell line, ET (Huh-lucubineo-ET) was used for screening of compounds of the present invention for inhibiting HCV replication. The ET cell line was stably transfected with RNA transcripts harboring a I389luc-ubi-neo/NS3-3′/ET; replicon with firefly luciferase-ubiquitin-neomycin phosphotransferase fusion protein and EMCV-IRES driven NS3-5B polyprotein containing the cell culture adaptive mutations (E1202G; T1280I; K1846T) (Krieger at al, 2001 and unpublished). The ET cells were grown in DMEM (Dulbeco's Modified Eagle's Medium), supplemented with 10% fetal calf serum, 2 mM Glutamine, Penicillin (100 IU/mL)/Streptomycin (100 μg/mL), 1× nonessential amino acids, and 250 μg/mL G418 (“Geneticin”). They were all available through Life Technologies (Bethesda, Md.). The cells were plated at 0.5-1.0×10^4 cells/well in the 96 well plates and incubated for 24 hrs before adding testing compounds. Then the compounds were added to the cells to achieve a final concentration of 0.1 nM to 50 μM and a final DMSO concentration of 0.5%. Luciferase activity were measured 48-72 hours later by adding a lysis buffer and the substrate (Catalog number Glo-lysis buffer E2661 and Bright-Glo luciferase system E2620 Promega, Madison, Wis.). Cells should not be too confluent during the assay. Percent inhibition of replication was plotted relative to no compound control. Under the same condition, cytotoxicity of the compounds was determined using cell proliferation reagent, WST-1 (Roche, Germany). The compounds showing antiviral activities, but no significant cytotoxicities were chosen to determine EC50 and TC50. For these determinations, a 10 point 2-fold serial dilution for each compound was used, which spans a concentration range of 1000 fold. EC50 and similarly TC50 values were calculated by fitting % inhibition at each concentration to the following equation:
% inhibition=100%/[(IC50/[I])^b+1]
where b is Hill's coefficient.
In some preferred embodiments compounds of Formula I will have a % inhibition of at least 20% when tested at 10 μM. In other embodiments the compounds of Formula I will have a % inhibition of at least 50% when tested at 10 μM.

For `O=C(Cc1ccc(-c2ccc([C@@H]3CCCN3C(=O)OCc3ccccc3)cc2)cc1)NC1CC1` (stereo in doubt) [Compound 4002, 2-(4′-Cyclopropylcarbamoylmethyl-biphenyl-4-yl)-pyrrolidine-1-carboxylic acid benzyl ester], which inhibition at 10 µM is on record?
Its inhibition at 10 µM is 33.3%.

`O=C(Cc1cccc(-c2ccc([C@@H]3CCCN3C(=O)OCc3ccccc3)cc2)c1)NC1CC1` (stereo in doubt) [Compound 4043, 2-(3′-Cyclopropylcarbamoylmethyl-biphenyl-4-yl)-pyrrolidine-1-carboxylic acid benzyl ester] was tested. Which inhibition at 10 µM did it give?
The inhibition at 10 µM was 40%.

Which inhibition at 10 µM does the source give for `O=C(NC1CC1)c1ccc(-c2ccc([C@@H]3CCCN3C(=O)OCc3ccccc3)cc2)cc1` (stereo in doubt) [Compound 4044, 2-(4′-Cyclopropylcarbamoyl-biphenyl-4-yl)-pyrrolidine-1-carboxylic acid benzyl ester] here?
The inhibition at 10 µM was 53.1%.

With `O=C(NC1CC1)c1cccc(-c2ccc3nc([C@@H]4CCCN4C(=O)OCc4ccccc4)[nH]c3c2)c1` [Compound 4001, (S)-2-[6-(3-Cyclopropylcarbamoyl-phenyl)-1H-benzoimidazol-2-yl]-pyrrolidine-1-carboxylic acid benzyl ester] as the molecule, how does the inhibition at 10 µM read?
The inhibition at 10 µM was 94.5%.

For `O=C(Cc1cccc(-c2ccc3nc([C@@H]4CCCN4C(=O)OCc4ccccc4)[nH]c3c2)c1)NC1CC1` [Compound 4003, (S)-2-[6-(3-Cyclopropylcarbamoylmethyl-phenyl)-1H-benzoimidazol-2-yl]-pyrrolidine-1-carboxylic acid benzyl ester], which inhibition at 10 µM is on record?
The inhibition at 10 µM was 97%.

With `O=C(Nc1ccc(-c2cccc(C#C[C@@H]3CCCN3C(=O)OCc3ccccc3)c2)cc1)C1CC1` [Compound 4004, (S)-2-[4′-(Cyclopropanecarbonyl-amino)-biphenyl-3-ylethynyl]-pyrrolidine-1-carboxylic acid benzyl ester] as the molecule, how does the inhibition at 10 µM read?
The inhibition at 10 µM was 81.8%.

`O=C(OCc1ccccc1)N1CCC[C@H]1c1nc2ccc(-c3ccc4[nH]ccc4c3)cc2s1` [Compound 4005, (S)-2-[6-(1H-Indol-5-yl)-benzothiazol-2-yl]-pyrrolidine-1-carboxylic acid benzyl ester] was tested. Which inhibition at 10 µM did it give?
Its inhibition at 10 µM is 1.7%.

For `O=C(OCc1ccccc1)N1CCC[C@H]1c1nc2ccc(-c3ccccc3)cc2[nH]1` [Compound 4007, (S)-2-(6-Phenyl-1H-benzoimidazol-2-yl)-pyrrolidine-1-carboxylic acid benzyl ester], which inhibition at 10 µM is on record?
Its inhibition at 10 µM is 4.4%.

`Nc1ccc(-c2ccc3nc([C@@H]4CCCN4C(=O)OCc4ccccc4)[nH]c3c2)cc1` [Compound 4008, (S)-2-[6-(4-Amino-phenyl)-1H-benzoimidazol-2-yl]-pyrrolidine-1-carboxylic acid benzyl ester] was tested. Which inhibition at 10 µM did it give?
The inhibition at 10 µM was 13.6%.

With `O=C(OCc1ccccc1)N1CCC[C@H]1c1nc2ccc(-c3ccc4ccccc4c3)cc2[nH]1` [Compound 4011, (S)-2-(6-Naphthalen-2-yl-1H-benzoimidazol-2-yl)-pyrrolidine-1-carboxylic acid benzyl ester] as the molecule, how does the inhibition at 10 µM read?
The inhibition at 10 µM was 87%.

`O=C(OCc1ccccc1)N1CCC[C@H]1c1nc2ccc(-c3cccc4cc[nH]c34)cc2[nH]1` [Compound 4014, (S)-2-[6-(1H-Indol-7-yl)-1H-benzoimidazol-2-yl]-pyrrolidine-1-carboxylic acid benzyl ester] was tested. Which inhibition at 10 µM did it give?
Its inhibition at 10 µM is 12.7%.

`COc1ccc(-c2ccc3nc([C@@H]4CCCN4C(=O)OCc4ccccc4)[nH]c3c2)c(OC)c1` [Compound 4017, (S)-2-[6-(2,4-Dimethoxy-phenyl)-1H-benzoimidazol-2-yl]-pyrrolidine-1-carboxylic acid benzyl ester] was tested. Which inhibition at 10 µM did it give?
Its inhibition at 10 µM is 42.4%.

How did the inhibition at 10 µM turn out when `O=C(NC1CC1)c1ccc(-c2ccc3nc([C@@H]4CCCN4C(=O)OCc4ccccc4)oc3c2)cc1` [Compound 4019, (S)-2-[6-(4-Cyclopropylcarbamoyl-phenyl)-benzooxazol-2-yl]-pyrrolidine-1-carboxylic acid benzyl ester] was run?
The inhibition at 10 µM was 50.5%.
